Measured values: patent publication EP0533925A1, “OPTICAL ISOMER OF R-FORM OF DIPHENYL ETHER DERIVATIVE AND HERBICIDE CONTAINING THE SAME AS ACTIVE INGREDIENT” (TEIJIN LIMITED, priority 1990, dated 1991)

How the values were obtained:
Experiment in all cases: Herbicidal activity, foliar application of single compounds (Test Examples 1 to 5)
Format in all cases: in vivo
Design in all cases: key: 0 means the state where the plants are as sound as before the application of the active compound; 1, 2, 3 and 4 mean varying degrees of the enfeebled state of the plants between 0 and 5; 1, 2, 3 and 4 mean varying degrees of the enfeebled state of the plants between 0 and 5; 1, 2, 3 and 4 mean varying degrees of the enfeebled state of the plants between 0 and 5; 1, 2, 3 and 4 mean varying degrees of the enfeebled state of the plants between 0 and 5; 5 is the state where the plants are withered or killed by application of the active compound
Conditions in all cases: 3 weeks after application
Abutilon theophrosti = test system: Abutilon theophrosti
Procedure: (§1) In these examples, all parts means parts by weight, unless otherwise noted. The herbicidal activity was evaluated on a scale of 6 degrees. In other words, 0 means the state where the plants are as sound as before the application of the active compound, while 5 is the state where the plants are withered or killed by application of the active compound, and 1, 2, 3 and 4 mean varying degrees of the enfeebled state of the plants between 0 and 5.
(§2) The diphenyl ethers shown in Table 2 were added to 5000 parts of a mixture of acetone and water (1 : 1 by volume), and 2.6 parts of a nonionic surfactant (Sorpol 2680, tradename) was added to form a solution, so that the ether becomes the prescribed amount in each solution.
(§3) Seeds of plants were sown in the soil, cultivated for 2 to 3 weeks, after germination, then the plants were used for the tests.
(§4) The prepared solution was applied to these plants at the prescribed rate of application in total, then the plants were continuously cultivated for 3 weeks without applying the solution.
(§5) The alphabetical symbols in Tables 2 and 3 represent the following plants, respectively: a: Digitaria adscendens b: Setaria viridis c: Sorghum halepense d: Chenopodium album var. centrorubrum e: Amaranthus mangostanus f: Astragalus sinicus g: Abutilon theophrosti h: Solanum nigrum i: Xanthium strumarium j: Soybean; Glycine max k: Corn; Zea mays Table 2

Amaranthus mangostanus = test system: Amaranthus mangostanus
Procedure: as §1, §2, §3, §4, §5

Astragalus sinicus = test system: Astragalus sinicus
Procedure: as §1, §2, §3, §4, §5

[1] = test system: Chenopodium album var. centrorubrum
Procedure: as §1, §2, §3, §4, §5

Corn; Zea mays = test system: Corn; Zea mays
Procedure: as §1, §2, §3, §4, §5

Digitaria adscendens = test system: Digitaria adscendens
Procedure: as §1, §2, §3, §4, §5

Setaria viridis = test system: Setaria viridis
Procedure: as §1, §2, §3, §4, §5

Solanum nigrum = test system: Solanum nigrum
Procedure: as §1, §2, §3, §4, §5

Sorghum halepense = test system: Sorghum halepense
Procedure: as §1, §2, §3, §4, §5

Soybean; Glycine max = test system: Soybean; Glycine max
Procedure: as §1, §2, §3, §4, §5

Xanthium strumarium = test system: Xanthium strumarium
Procedure: as §1, §2, §3, §4, §5

[2] = Rate of Application 0.008 kg/ha
[3] = Rate of Application 0.031 kg/ha
[4] = Rate of Application 0.016 kg/ha

SMILES | herbicidal activity, Plants g (Abutilon theophrosti; [2]) | herbicidal activity, Plants g (Abutilon theophrosti; [3]) | herbicidal activity, Plants e (Amaranthus mangostanus; [2]) | herbicidal activity, Plants e (Amaranthus mangostanus; [3]) | herbicidal activity, Plants f (Astragalus sinicus; [2]) | herbicidal activity, Plants f (Astragalus sinicus; [3]) | herbicidal activity, Plants d [1, 2] | herbicidal activity, Plants d [1, 3] | herbicidal activity, Plants k (Corn; Zea mays; [2]) | herbicidal activity, Plants k (Corn; Zea mays; [3]) | herbicidal activity, Plants a (Digitaria adscendens; [2]) | herbicidal activity, Plants a (Digitaria adscendens; [3]) | herbicidal activity, Plants b (Setaria viridis; [2]) | herbicidal activity, Plants b (Setaria viridis; [3]) | herbicidal activity, Plants h (Solanum nigrum; [2]) | herbicidal activity, Plants h (Solanum nigrum; [3]) | herbicidal activity, Plants c (Sorghum halepense; [2]) | herbicidal activity, Plants c (Sorghum halepense; [3]) | herbicidal activity, Plants j (Soybean; Glycine max; [3]) | herbicidal activity, Plants i (Xanthium strumarium; [3]) | further results
CCOC(=O)C(C)Oc1cc(Oc2ccc(C(F)(F)F)cc2Cl)ccc1C#N (stereo not drawn) [(2), ethyl α-[2-cyano-5-(2-chloro-4-trifluoromethylphenoxy)phenoxy]propionate] | 5 | 5 | 3 | 5 | 4 | 5 | 5 | 5 | 4 | 5 | 3 | 4 | 3 | 4 | 5 | 5 | 3 | 5 | 5 | 5 | herbicidal activity, Plants j (Soybean; Glycine max; [2]): 4; herbicidal activity, Plants i (Xanthium strumarium; [2]): 5
CCOC(=O)C(C)Oc1cc(Oc2ncc(C(F)(F)F)cc2Cl)ccc1C#N (stereo not drawn) [(37), Ethyl α-[2-cyano-5-(3-chloro-5-trifluoromethyl-2-pyridyloxy)phenoxy]propionate] | 5 | 5 | 5 | 5 | 3 | 4 | 3 | 5 | 2 | 3 | 3 | 4 | 3 | 4 | 4 | 4 | 3 | 5 | 4 | 5 | herbicidal activity, Plants j (Soybean; Glycine max; [2]): 3; herbicidal activity, Plants i (Xanthium strumarium; [2]): 4
COC(=O)C(C)Oc1cc(Oc2ccc(C(F)(F)F)cc2Cl)ccc1C#N (racemic) [Racemic (1), racemic methyl α-[2-cyano-5-(2-chloro-4-trifluoromethylphenoxy)phenoxy]propionate, reference compound] | – | 5 | – | 5 | – | 5 | – | 5 | – | 5 | – | 4 | – | 3 | – | 5 | – | 5 | 4 | 5 | herbicidal activity, Plants g (Abutilon theophrosti; [4]): 5; herbicidal activity, Plants e (Amaranthus mangostanus; [4]): 5; herbicidal activity, Plants f (Astragalus sinicus; [4]): 5; herbicidal activity, Plants d [1, 4]: 5; herbicidal activity, Plants k (Corn; Zea mays; [4]): 4; herbicidal activity, Plants a (Digitaria adscendens; [4]): 3; herbicidal activity, Plants b (Setaria viridis; [4]): 2; herbicidal activity, Plants h (Solanum nigrum; [4]): 5; herbicidal activity, Plants c (Sorghum halepense; [4]): 2; herbicidal activity, Plants j (Soybean; Glycine max; [4]): 4; herbicidal activity, Plants i (Xanthium strumarium; [4]): 5
CCCCOC(=O)C(C)Oc1cc(Oc2ccc(C(F)(F)F)cc2Cl)ccc1C#N (stereo not drawn) [(3), n-Butyl α-[2-cyano-5-(2-chloro-4-trifluoromethylphenoxy)phenoxy]propionate] | 5 | 5 | 5 | 5 | 4 | 5 | 5 | 5 | 2 | 5 | 3 | 5 | 3 | 4 | 5 | 5 | 2 | 5 | 5 | 5 | herbicidal activity, Plants j (Soybean; Glycine max; [2]): 3; herbicidal activity, Plants i (Xanthium strumarium; [2]): 4
